The source of these data is ChEMBL document CHEMBL5241072, “Overview of piperlongumine analogues and their therapeutic potential” (Eur J Med Chem, 2021).

In one series the test system is A549. The experiment in a line: Antiproliferative activity against human A549 cells assessed as cell growth inhibition. In kind it is functional, cell-based.
Another series addresses 20S proteasome. Description: Inhibition of human 20S proteasome. It is filed as protein-complex assay.
Series [1] can be described thus: Cytotoxicity against mouse RAW264.7 cells assessed as cell growth inhibition. In kind it is toxicity, cell-based.
Series [2] has as its system Hepatitis B virus. The experiment in a line: Antiviral activity against HBV infected in human HepG2.2.15 cells assessed as reduction in extracellular HBV DNA level. It is filed as functional, organism-based.
Series [3] concerns Hepatitis B virus. The experiment in a line: Antiviral activity against HBV infected in human HepG2.2.15 cells assessed as reduction in intracellular HBV DNA level. In kind it is functional, organism-based.
The species named for series [4] is Oryctolagus cuniculus. Description: Antiplatelet activity in rabbit plasma assessed as inhibition of ADP induced platelet aggregation by microplate reader analysis. In kind it is functional.
Series [5] is filed under the species Oryctolagus cuniculus. Description: Antiplatelet activity in rabbit plasma assessed as inhibition of arachidonic acid induced platelet aggregation by microplate reader analysis. It is filed as functional.
The test system of another series is HeLa. Description: Antiproliferative activity against human HeLa cells assessed as cell growth inhibition. In kind it is functional, cell-based.
In a further series the test system is NCI-H1703. Description: Antiproliferative activity against human NCI-H1703 cells assessed as cell growth inhibition. It is filed as functional, cell-based.
The species named for series [6] is Oryctolagus cuniculus. Description: Antiplatelet activity in rabbit plasma assessed as inhibition of arachidonic acid induced platelet aggregation at 150 uM by aggregometer analysis relative to control. In kind it is functional. Further details: scale not given: the % may be the effect or the level left.
The test system of another series is NSCLC. Description: Cytotoxicity against human NSCLC cells assessed as cell growth inhibition. In kind it is functional, cell-based.
A short description of series [7]: Inhibition of TrxR in human MDA-MB-231 cells. In kind it is cell-based.
In series [8] the test system is MDA-MB-231. Description: Antitumor activity against BALB/c mouse xenografted with human MDA-MB-231 cells assessed as tumor growth inhibition at 25 mg/kg, ip measured after 21 days relative to control. In kind it is functional. The following applies: MDA-MB-231, 504 h, time 21 day, read-out: TGI. (In general: Xenograft models place foreign cells or tissue in a host animal.)

Series [9] deals with MDA-MB-231. The experiment in a line: Antiproliferative activity against human MDA-MB-231 cells assessed as cell growth inhibition. In kind it is functional, cell-based.
Series [10] concerns MDA-MB-231. The experiment in a line: Potency index, ratio of piperlongumine IC50 to compound IC50 for inhibition of TrxR in human MDA-MB-231 cells. It is filed as cell-based.
The next series concerns PC-12. Description: Neuroprotective activity against H2O2-induced cytotoxicity in rat PC-12 cells assessed as cell survival rate preincubated for 24 hrs followed by H2O2 stimulation and measured after 24 hrs by MTT assay relative to control. In kind it is functional. The settings on record: time 48 hrs. (In general: Formazan colour is commonly taken as a measure of viable cells.)

Series [11] has as its system HGC-27. The experiment in a line: Antiproliferative activity against human HGC-27 cells assessed as cell growth inhibition. In kind it is functional, cell-based.
The subject of series [12] is HGC-27. The experiment in a line: Potency index, ratio of piperlongumine IC50 to compound IC50 for antiproliferative activity against human HGC-27 cells. It is filed as functional.
A short description of series [13]: Inhibition of TrxR in human HGC-27 cells. In kind it is cell-based.
The test system of series [14] is HGC-27. The experiment in a line: Potency index, ratio of piperlongumine IC50 to compound IC50 for inhibition of TrxR in human HGC-27 cells. In kind it is cell-based.
Series [15] relates to SF-295. Description: Antiproliferative activity against human SF-295 cells assessed as cell growth inhibition. In kind it is functional, cell-based.
Series [16] concerns HL-60. The experiment in a line: Antiproliferative activity against human HL-60 cells assessed as cell growth inhibition in presence of piperlongumine. In kind it is functional, cell-based.
Series [17] has as its system SF-295. Description: Antiproliferative activity against human SF-295 cells assessed as cell growth inhibition in presence of piperlongumine. It is filed as functional, cell-based.
The test system of series [18] is HCT-8. The experiment in a line: Antiproliferative activity against human HCT-8 cells assessed as cell growth inhibition in presence of piperlongumine. It is filed as functional, cell-based.
For series [19], the system named is MDA-MB-435. Description: Antiproliferative activity against human MDA-MB-435 cells assessed as cell growth inhibition. It is filed as functional, cell-based.
In series [20] the test system is HCT-8. Description: Antiproliferative activity against human HCT-8 cells assessed as cell growth inhibition. In kind it is functional, cell-based.
Series [21] deals with HL-60. Description: Antiproliferative activity against human HL-60 cells assessed as cell growth inhibition. In kind it is functional, cell-based.
Series [22] relates to MDA-MB-435. The experiment in a line: Antiproliferative activity against human MDA-MB-435 cells assessed as cell growth inhibition in presence of piperlongumine. In kind it is functional, cell-based.
A further series deals with PC-3. Description: Antiproliferative activity against human PC-3 cells assessed as cell growth inhibition. In kind it is functional, cell-based.
A further series has as its system MKN-45. The experiment in a line: Antiproliferative activity against human MKN-45 cells assessed as cell growth inhibition. In kind it is functional, cell-based.
For another series, the system named is DU-145. Description: Antiproliferative activity against human DU-145 cells assessed as cell growth inhibition. It is filed as functional, cell-based.
Another series concerns P388. Description: Antiproliferative activity against mouse P388 cells assessed as cell growth inhibition. In kind it is functional, cell-based.
The next series has as its system KB. The experiment in a line: Antiproliferative activity against human KB cells assessed as cell growth inhibition. In kind it is functional.
Series [23] is described as follows: Antiproliferative activity against human A875 cells assessed as cell growth inhibition. In kind it is functional, cell-based.
Series [24] in a line: Antiproliferative activity against human U87 cells assessed as cell growth inhibition. In kind it is functional, cell-based, U-87MG ATCC. The settings on record: U-87 MG.
A short description of series [25]: Antiproliferative activity against human OCSL cell assessed as cell growth inhibition. It is filed as functional, cell-based.
The test system of another series is 8-MG-BA. Description: Antiproliferative activity against human 8-MG-BA cells assessed as cell growth inhibition. In kind it is functional, cell-based.
Another series has as its system AGS. Description: Antiproliferative activity against human AGS cells assessed as cell growth inhibition. In kind it is functional, cell-based.
Series [26] can be described thus: Antiproliferative activity against human OC2 cells assessed as cell growth inhibition. In kind it is functional, cell-based.
Another series concerns CCRF-CEM. The experiment in a line: Antiproliferative activity against human CEM cells assessed as cell growth inhibition. It is filed as functional, cell-based.
The next series deals with LN-229. The experiment in a line: Antiproliferative activity against human LN-229 cells assessed as cell growth inhibition. It is filed as functional, cell-based.
For a further series, the system named is HCT-116. Description: Antiproliferative activity against human HCT-116 cells assessed as cell growth inhibition. It is filed as functional, cell-based.
The next series has as its system K562. The experiment in a line: Antiproliferative activity against human K562 cells assessed as cell growth inhibition. In kind it is functional, cell-based.
A further series has as its system MOLT-4. Description: Antiproliferative activity against human MOLT-4 cells assessed as cell growth inhibition. It is filed as functional, cell-based.
In another series the test system is Jurkat. The experiment in a line: Antiproliferative activity against human Jurkat cells assessed as cell growth inhibition. It is filed as functional, cell-based.
In the next series the test system is A-375. The experiment in a line: Antiproliferative activity against human A-375 cells assessed as cell growth inhibition. It is filed as functional, cell-based.
For another series, the system named is HT-29. Description: Antiproliferative activity against human HT-29 cells assessed as cell growth inhibition. It is filed as functional, cell-based.
The next series relates to MCF7. Description: Antiproliferative activity against human MCF7 cells assessed as cell growth inhibition. In kind it is functional, cell-based.
Series [27] is described as follows: Antiproliferative activity against human NCI-H660 cells assessed as cell growth inhibition. It is filed as functional, cell-based.

As usually defined, the IC50 is the concentration that inhibits the measured activity by half. For `COc1cc(/C=C/C(=O)N2CCC=C(Cl)C2=O)cc(OC)c1OC`, the IC50 in the series with A549 is 4.14 µM.

Regarding `C=CC(=O)NC(=O)/C=C/c1cc(OC)c(OC)c(OC)c1`, the IC50 at 20S proteasome worked out at 2.6 µM.

As to `COc1cc(/C=C/C(=O)C2CCC=CC2=O)cc(OC)c1OC` (configuration not stated), the IC50 in [1] came to 6 µM.

In the case of `CC(=O)Nc1ccc(-c2cc(C)c(=O)n(Cc3ccc(Cl)cc3)n2)cc1`, the IC50 came out at 1.5 µM with Hepatitis B virus [2] and 3 µM with Hepatitis B virus [3].

Turning to `O=C1C=CCCN1C(=O)/C=C/c1ccc2ccccc2n1`, the IC50 in the series listed under Oryctolagus cuniculus [4] is 403 µM; in the series filed under Oryctolagus cuniculus [5] it was 0.13 µM.

With `O=C(/C=C/c1ccc2ccccc2n1)N1CCC=C(Cl)C1=O`, the figures for the IC50 in the series filed under Oryctolagus cuniculus [4] and in the series filed under Oryctolagus cuniculus [5] were 3140 µM and 0.108 µM, respectively.

Regarding `COc1cc(/C=C/C(=O)N2CCC=C(C#CC3CC3)C2=O)cc(OC)c1OC`, the 50% inhibitory concentration (IC50) in the series with HeLa was 1.3 µM; in the series on NCI-H1703, 0.7 µM.

As to `O=C(/C=C/c1cnccn1)N1CCC=C(Cl)C1=O`, in the series listed under Oryctolagus cuniculus [6], the Activity worked out at 100%.

`COc1cc(/C=C2\CN(C=O)C/C(=C\c3cc(OC)c(OC)c(OC)c3)C2=O)cc(OC)c1OC`: the IC50 in the series with NSCLC was 0.6 µM.

For the compound `O=C1C=CCC/C1=C\c1ccc(Oc2ccc(/C=C3\CCC=CC3=O)cc2)cc1`, the IC50 amounted to 0.16 µM in series [7] and 0.63 µM with MDA-MB-231 [9]. Further, the inhibition in vivo at 25 mg/kg in the series with MDA-MB-231 [8] amounted to 67%. The Ratio IC50 in the series with MDA-MB-231 [10] was 10.

Consider `COc1cc(OC)c(/C=C2\CC/C(=C\c3cc(OC)c(OC)c(OC)c3)C2=O)c(OC)c1`, for which the Survival in the series on PC-12 is given as 80%.

Consider `COCCOCCOc1ccc(/C=C2\CCC=CC2=O)cc1OC`, for which the IC50 with HGC-27 [11] is 0.76 µM; in series [13], 0.15 µM. The “Ratio IC50” value came out at 10 in the series with HGC-27 [12] and 12 with HGC-27 [14].

Turning to `O=c1[nH]cc(F)c(=O)[nH]1` [FLUOROURACIL], the IC50 with SF-295 [15] was determined as 2.33 µM; with HL-60 [16], 38.1 µM; in the series with SF-295 [17], 0.49 µM; in the series with HCT-8 [18], 4.7 µM; with MDA-MB-435 [19] it was 9.19 µM; in the series on HCT-8 [20] it was 11.2 µM. Besides, the IC50 in the series on HL-60 [21] turned out to be 84.7 µM; in the series with MDA-MB-435 [22], 1.95 µM.

Regarding `COc1cc(/C=C/C(=O)N2CCC=CC2=O)cc(OC)c1OC` [PIPLARTINE], the IC50 in the series with PC-3 was 4.9 µM; in series [7], 1.52 µM; in the series on MKN-45 it was 20 µM; with DU-145, 3.4 µM; in the series listed under Oryctolagus cuniculus [4] it was 6710 µM; in the series with P388 it was 2.8 µM. Moreover, the concentration for half-maximal inhibition (IC50) in the series on NSCLC came to 9.2 µM; in the series with HGC-27 [11], 7.53 µM; in the series filed under Oryctolagus cuniculus [5] it was 20.8 µM; in the series with KB, 5.6 µM; in [23], 2.5 µM; in series [24], 10 µM. Further, the IC50 came to 11.3 µM in series [25]; 1.72 µM in the series on MDA-MB-231 [9]; 10 µM with 8-MG-BA; 20 µM in the series with AGS; 7.4 µM in series [26]; 4.4 µM with CCRF-CEM. Further, the IC50 was 10 µM with LN-229; 13.9 µM in the series on HCT-116; 5.7 µM in the series with K562; 1.7 µM with MOLT-4; 5.3 µM in the series with Jurkat; 2.5 µM in the series on A-375. The IC50 came to 15 µM against 20S proteasome; 2.2 µM with HCT-8 [20]; 1.4 µM in the series with HT-29; 10.2 µM with A549; 5.3 µM in the series on HL-60 [21]; 25 µM in the series with MCF7. In addition, in [27], the IC50 was found to be 0.4 µM. The Activity in the series filed under Oryctolagus cuniculus [6] is given as 76.4%.
